Measured values as given in ChEMBL document CHEMBL1124030, “Synthesis and biological activity of the four stereoisomers of 6-[4-[3-[[2-hydroxy-3-[4-[2- (cyclopropylmethoxy)ethyl]phenoxy]propyl]amino]-propionamido] phenyl]-5-methyl-4,5-dihydro-3(2H)-pyridazinone, a combined vasodilator and beta-adrenoceptor antagonist” (1988).

How the values were obtained:
Assay type in all cases: functional
Felis catus = experiment: Dose required to induce 50% inhibition of isoprenaline-induced tachycardia in the ganglion blocked anesthetized cat; conditions: read-out: ID50 (the source's name)
Rattus norvegicus [1] = experiment: Dose required to produce a 50% increase in blood flow to the autoperfused hindquarters of the anesthetized normotensive rat
Rattus norvegicus [2] = experiment: Dose required to produce a fall in blood pressure of 40 mmHg in the anesthetized normotensive rat

Row | SMILES | ED50 (Felis catus) | ED50 (Rattus norvegicus [1]) | ED40 (Rattus norvegicus [2])
1 | C[C@@H]1CC(=O)NN=C1c1ccc(NC(=O)CCNC[C@H](O)COc2ccc(CCOCC3CC3)cc2)cc1 | 1.7 µmol/kg | 1 µmol/kg | 2.4 µM/kg
2 | C[C@@H]1CC(=O)NN=C1c1ccc(NC(=O)CCNC[C@@H](O)COc2ccc(CCOCC3CC3)cc2)cc1 | 20.2 µmol/kg | 0.9 µmol/kg | 4.9 µM/kg
3 | C[C@H]1CC(=O)NN=C1c1ccc(NC(=O)CCNC[C@H](O)COc2ccc(CCOCC3CC3)cc2)cc1 | 1.6 µmol/kg | > 40 µmol/kg | >40 µM/kg
4 | C[C@H]1CC(=O)NN=C1c1ccc(NC(=O)CCNC[C@@H](O)COc2ccc(CCOCC3CC3)cc2)cc1 | 8.6 µmol/kg | > 40 µmol/kg | 20 µM/kg
5 | CC1CC(=O)NN=C1c1ccc(NC(=O)CCNCC(O)COc2ccc(CCOCC3CC3)cc2)cc1 (stereo not given) | 1.7 µmol/kg | 1.6 µmol/kg | 2.4 µM/kg
